The record followed here is patent US9573913B2, “Cathepsin cysteine protease inhibitors” (Merck Sharp & Dohme Corp., priority 2013, dated 2017).

The target in assay [1] is human cathepsin K (UniProt P43236). Nature of the assay: Cathepsin K Assay (hrbCat K). In kind it is biochemical. As to conditions: Z-Leu-Arg-AMC substrate, pH 5.5, 15 min preincubation; read-out: hrbCat K (IP (nM)). A digest of the protocol:
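Human cathepsin K (0.4 nM) was preincubated 15 min at room temperature with compound in 50 mM MES pH 5.5, 2.5 mM EDTA, 2.5 mM DTT and 10% DMSO. Inhibition was fitted to a dose-response model.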

The target in assay [2] is T1, human cathepsin F (Homo sapiens, UniProt Q9UBX1).
T1 sequence (Q9UBX1 271-484): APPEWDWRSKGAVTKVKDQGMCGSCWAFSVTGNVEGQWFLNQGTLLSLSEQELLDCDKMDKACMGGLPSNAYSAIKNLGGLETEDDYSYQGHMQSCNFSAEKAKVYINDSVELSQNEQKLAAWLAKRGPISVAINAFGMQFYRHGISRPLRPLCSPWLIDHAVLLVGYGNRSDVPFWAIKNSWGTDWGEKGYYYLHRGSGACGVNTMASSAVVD
Description: Cathepsin F assay (hCat F). In kind it is biochemical. The following applies: Z-Phe-Arg-AMC substrate, pH 5.5, 15 min preincubation; read-out: hCat F (IP (nM)). A digest of the protocol: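 Enzyme (10 nM) was preincubated 15 min at room temperature with compounds (1/3 DMSO dilution series, 500–0.025 μM) in 50 mM MES pH 5.5, 2.5 mM EDTA, 2.5 mM DTT, 10% DMSO. Z-Phe-Arg-AMC (8 μM) was added and AMC fluorescence (Ex 360/Em 460 nm) followed for 20 min. % inhibition was fitted to dose-response curves.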

As for `CC(C)(C)Nc1nc([C@@H]2CCCC[C@H]2C(=O)NC2(C#N)CC2)c(-c2ccc(N3CCS(=O)(=O)CC3)cc2)s1` [Example 157, (1R,2R)-2-(2-(tert-butylamino)-5-(4-(1,1-dioxidothiomorpho-lino)phenyl)thiazol-4-yl)-N-(1-cyanocyclopropyl) cyclohexanecarbox-amide], the IC50 in assay [1] was 19.4 nM; in assay [2], no less than 10000 nM.
In the same order, the values of `N#CC1(NC(=O)[C@@H]2CCCC[C@H]2c2nc(C3CCS(=O)(=O)CC3)sc2-c2ccc(N3CCS(=O)(=O)CC3)cc2)CC1` [Example 158, (1R,2R)-N-(1-cyanocyclopropyl)-2-(2-(1,1-dioxidotetrahydro-2H-thiopyran-4-yl)-5-(4-(1,1-dioxidothiomorpho-lino)phenyl)thiazol-4-yl)cyclohexane-carboxamide] are 4.6 nM and no less than 10000 nM.
In the same order, the values of `CN=S1(=O)CCN(c2ccc(-c3sc(-c4ccc(F)cc4)nc3[C@@H]3CCCC[C@H]3C(=O)NC3(C#N)CC3)cc2)CC1` [Example 160, (1R,2R)-N-(1-cyanocyclopropyl)-2-(2-(4-fluorophenyl)-5-(4-(1-(methylimino)-1-oxidothiomorpholino)phenyl)thiazol-4-yl)cyclohexane-carboxamide] are 1.6 nM and 3330 nM.
For the molecule `CC(C)(c1ccccc1)c1nc([C@@H]2CCCC[C@H]2C(=O)NC2(C#N)CC2)c(-c2ccc(N3CCS(=O)(=O)CC3)cc2)s1` [Example 161, (1R,2R)-N-(1-cyanocyclopropyl)-2-(5-(4-(1,1-dioxidothiomorpho-lino)phenyl)-2-(2-phenylpropan-2-yl)thiazol-4-yl)cyclohexane-carboxamide], the IC50 in assay [1] is 5.1 nM; in assay [2], 1000 nM.
`Cc1nc([C@@H]2CCCC[C@H]2C(=O)NCC#N)c(-c2ccc(N3CCS(=O)(=O)CC3)cc2)o1` [Example 164, (1R,2R)-N-(cyanomethyl)-2-(5-(4-(1,1-dioxidothiomorpho-lino)phenyl)-2-methyloxazol-4-yl)cyclohexane-carboxamide]: the IC50 in assay [1] is 13.8 nM; in assay [2] it was no less than 10000 nM.
Taken in the same sequence, the figures for `N#CC1(NC(=O)[C@@H]2CC(F)(F)CC[C@H]2c2nc(-c3ccc(F)cc3)oc2-c2ccc(N3CCS(=O)(=O)CC3)cc2)CC1` [Example 165, (1R,2R)-N-(1-cyanocyclopropyl)-2-(5-(4-(1,1-dioxidothiomorpho-lino)phenyl)-2-(4-fluorophenyl)oxazol-4-yl)-5,5-difluorocyclohexane-carboxamide] were 0.6 nM and 61 nM.
For the molecule `CC(C)(C)c1nc([C@@H]2CCC(F)(F)C[C@H]2C(=O)NC2(C#N)CC2)c(-c2ccc(N3CCS(=O)(=O)CC3)cc2)o1` [Example 166, (1R,2R)-2-(2-(tert-butyl)-5-(4-(1,1-dioxidothiomorpho-lino)phenyl)oxazol-4-yl)-N-(1-cyanocyclopropyl)-5,5-difluorocyclohexane-carboxamide], the IC50 in assay [1] is 0.7 nM; in assay [2] it was 356 nM.
Taken in the same sequence, the figures for `CC(C)(C)c1nc([C@@H]2CCCC[C@H]2C(=O)NC2(C#N)CC2)c(-c2ccc(N3CCS(=O)(=O)CC3)cc2)o1` [Example 167, (1R,2R)-2-(2-(tert-butyl)-5-(4-(1,1-dioxidothiomorpho-lino)phenyl)oxazol-4-yl)-N-(1-cyanocyclopropyl) cyclohexanecarbox-amide] were 2.4 nM and 5120 nM.
`CC(C)(C)c1nc([C@@H]2CC[C@H](F)C[C@H]2C(=O)NC2(C#N)CC2)c(-c2ccc(N3CCS(=O)(=O)CC3)cc2)o1` [Example 168, (1R,2R,5S)-2-(2-(tert-butyl)-5-(4-(1,1-dioxidothiomorpho-lino)phenyl)oxazol-4-yl)-N-(1-cyanocyclopropyl)-5-fluorocyclohexane-carboxamide]: the IC50 in assay [1] was 3.3 nM; in assay [2], no less than 10000 nM.
Taken in the same sequence, the figures for `C[C@@H](C#N)NC(=O)[C@@H]1C[C@@H](F)CC[C@H]1c1nc(C(C)(C)C)oc1-c1ccc(N2CCS(=O)(=O)CC2)cc1` [Example 169, (1R,2R,5S)-2-(2-(tert-butyl)-5-(4-(1,1-dioxidothiomorpho-lino)phenyl)oxazol-4-yl)-N-((S)-1-cyanoethyl)-5-fluorocyclohexane-carboxamide] were 2.7 nM and 5660 nM.
On to `CC(C)[C@@H](C#N)NC(=O)[C@@H]1C[C@@H](F)CC[C@H]1c1nc(C(C)(C)C)oc1-c1ccc(N2CCS(=O)(=O)CC2)cc1` [Example 170, (1R,2R,5S)-2-(2-(tert-butyl)-5-(4-(1,1-dioxidothiomorpho-lino)phenyl)oxazol-4-yl)-N-((S)-1-cyano-2-methylpropyl)-5-fluorocyclohexane-carboxamide], for which the IC50 in assay [1] is 12 nM; in assay [2], no less than 10000 nM.
In the same order, the values of `C[C@@H](C#N)NC(=O)[C@@H]1C[C@@H](F)CC[C@H]1c1nc(C(C)(C)C)oc1-c1ccc(N2CCS(=N)(=O)CC2)cc1` [Example 171, (1R,2R,5S)-2-(2-(tert-butyl)-5-(4-(1-imino-1-oxidothiomorpholino)phenyl)oxazol-4-yl)-N-((S)-1-cyanoethyl)-5-fluorocyclohexane-carboxamide] are 4.8 nM and 7420 nM.
Taken in the same sequence, the figures for `CC(C)[C@@H](C#N)NC(=O)[C@@H]1C[C@@H](F)CC[C@H]1c1nc(C(C)(C)C)oc1-c1ccc(N2CCS(=N)(=O)CC2)cc1` [Example 172, (1R,2R,5S)-2-(2-(tert-butyl)-5-(4-(1-imino-1-oxidothiomorpholino)phenyl)oxazol-4-yl)-N-((S)-1-cyano-2-methylpropyl)-5-fluorocyclohexane-carboxamide] were 34.4 nM and no less than 10000 nM.
As for `CN=S1(=O)CCN(c2ccc(-c3oc(C(C)(C)C)nc3[C@@H]3CC[C@H](F)C[C@H]3C(=O)N[C@@H](C)C#N)cc2)CC1` [Example 173, (1R,2R,5S)-2-(2-(tert-butyl)-5-(4-(1-(methylimino)-1-oxidothiomorpholino)phenyl)oxazol-4-yl)-N-((S)-1-cyanoethyl)-5-fluorocyclohexane-carboxamide], the figures for the IC50 in assay [1] and in assay [2] were 4.7 nM and 6900 nM, respectively.
In the same order, the values of `CN=S1(=O)CCN(c2ccc(-c3oc(C(C)(C)C)nc3[C@@H]3CC[C@H](F)C[C@H]3C(=O)N[C@H](C#N)C(C)C)cc2)CC1` [Example 174, (1R,2R,5S)-2-(2-(tert-butyl)-5-(4-(1-(methylimino)-1-oxidothiomorpholino)phenyl)oxazol-4-yl)-N-((S)-1-cyano-2-methylpropyl)-5-fluorocyclohexane-carboxamide] are 31.3 nM and no less than 10000 nM.
Taken in the same sequence, the figures for `N#CC1(NC(=O)[C@@H]2CCCC[C@H]2c2nc(C3(c4ccccc4)CC3)sc2-c2ccc(N3CCS(=O)(=O)CC3)cc2)CC1` [Example 175, (1R,2R)-N-(1-cyanocyclopropyl)-2-(5-(4-(1,1-dioxidothiomorpho-lino)phenyl)-2-(1-phenylcyclopropyl)thiazol-4-yl)cyclohexane-carboxamide] were 2.1 nM and 1000 nM.
On to `N#CC1(NC(=O)[C@@H]2C[C@@H](F)CC[C@H]2c2nc(-c3ccc(F)cc3)sc2-c2ccc(N3CCS(=N)(=O)CC3)cc2)CC1` [Example 176, (1R,2R,5S)-N-(1-cyanocyclopropyl)-5-fluoro-2-(2-(4-fluorophenyl)-5-(4-(1-imino-1-oxidothiomorpholino)phenyl)thiazol-4-yl)cyclohexane-carboxamide], for which the IC50 came to 3.2 nM in assay [1] and 3330 nM in assay [2].
Taken in the same sequence, the figures for `CN=S1(=O)CCN(c2ccc(-c3sc(-c4ccc(F)cc4)nc3[C@@H]3CC[C@H](F)C[C@H]3C(=O)NC3(C#N)CC3)cc2)CC1` [Example 177, (1R,2R,5S)-N-(1-cyanocyclopropyl)-5-fluoro-2-(2-(4-fluorophenyl)-5-(4-(1-(methylimino)-1-oxidothiomorpholino)phenyl)thiazol-4-yl)cyclohexane-carboxamide] were 3.5 nM and 3330 nM.
In the same order, the values of `N#CC1(NC(=O)[C@@H]2CCCC[C@H]2c2nc(NC3CCCCC3)sc2-c2ccc(N3CCS(=O)(=O)CC3)cc2)CC1` [Example 178, (1R,2R)-N-(1-cyanocyclopropyl)-2-(2-(cyclohexylamino)-5-(4-(1,1-dioxidothiomorpho-lino)phenyl)thiazol-4-yl)cyclohexane-carboxamide] are 41.2 nM and 1000 nM.
In the same order, the values of `N#CC1(NC(=O)[C@@H]2CCCC[C@H]2c2nc(Nc3ccccc3)sc2-c2ccc(N3CCS(=O)(=O)CC3)cc2)CC1` [Example 179, (1R,2R)-N-(1-cyanocyclopropyl)-2-(5-(4-(1,1-dioxidothiomorpho-lino)phenyl)-2-(phenylamino)thia-zol-4-yl)cyclohexane-carboxamide] are 34.6 nM and 3740 nM.
For `N#CC1(NC(=O)[C@@H]2CCCC[C@H]2c2nc(Nc3ccc(F)cc3)sc2-c2ccc(N3CCS(=O)(=O)CC3)cc2)CC1` [Example 180, (1R,2R)-N-(1-cyanocyclopropyl)-2-(5-(4-(1,1-dioxidothiomorpho-lino)phenyl)-2-((4-fluorophenyl)amino)thiazol-4-yl)cyclohexane-carboxamide], the IC50 in assay [1] is 43.3 nM; in assay [2], 1000 nM.
